Measured values taken from PMC6152622, “Synthesis and Evaluation of Phenylxanthine Derivatives as Potential Dual A2AR Antagonists/MAO-B Inhibitors for Parkinson’s Disease” (Molecules : A Journal of Synthetic Chemistry and Natural …, 2017).
Like-named read-outs stand apart in the source and are kept apart here.

Legend:
human A2AR = biological target: T1, human A2AR (Homo sapiens, UniProt P29274); assay: Radioligand binding assay ([3H]ZM241385 competition) on membranes of HEK-293 cells transfected with human A2AR; conditions: [3H]ZM241385 displacement; Ki converted from IC50 by Cheng-Prusoff; duplicate, mean ± SD; read-out: Ki hA2AR
T1 construct: expressed in transfected cells
Protocol: The binding affinity of test compounds was determined using radioligand binding assays. Human A2AR cDNA was stably transfected into HEK-293 cells. Membranes from the transfected cell were used in the interactive capacity of each compound toward the A2AR. Competition binding assay experiments by incubating membranes of 10 μg protein with 2 nM [3H]ZM241385 were carried out, with interval concentrations ranging from 0.1 nM to 100 μM of test compounds in 96-well filter plates at 4 °C for 90 min. After incubation experiments, free and bound radioligands were split by filtering and washing. Last, filter-bound radioactivity was counted after addition of 30 μL/well of scintillation solution. Nonspecific binding was measured in the presence of 100 μM ZM241385. The experiments were carried in duplicate. IC50 values were determined using a nonlinear regression curve fitting by the program GraphPad Prism. The affinities of compounds were calculated by Ki value which was from the IC50 values according as the Cheng−Prusoff equation [19].

recombinant human MAO-B = biological target: T2, recombinant human MAO-B (Homo sapiens, UniProt P27338); assay: MAO-B inhibition, MAO-Glo commercial kit; type: biochemical; conditions: Ki converted from IC50 by Cheng-Prusoff; duplicate, mean ± SD; read-out: Ki hMAO-B
T2 construct: purchased Sigma-Aldrich Corporation
T2 sequence (P27338 1-520): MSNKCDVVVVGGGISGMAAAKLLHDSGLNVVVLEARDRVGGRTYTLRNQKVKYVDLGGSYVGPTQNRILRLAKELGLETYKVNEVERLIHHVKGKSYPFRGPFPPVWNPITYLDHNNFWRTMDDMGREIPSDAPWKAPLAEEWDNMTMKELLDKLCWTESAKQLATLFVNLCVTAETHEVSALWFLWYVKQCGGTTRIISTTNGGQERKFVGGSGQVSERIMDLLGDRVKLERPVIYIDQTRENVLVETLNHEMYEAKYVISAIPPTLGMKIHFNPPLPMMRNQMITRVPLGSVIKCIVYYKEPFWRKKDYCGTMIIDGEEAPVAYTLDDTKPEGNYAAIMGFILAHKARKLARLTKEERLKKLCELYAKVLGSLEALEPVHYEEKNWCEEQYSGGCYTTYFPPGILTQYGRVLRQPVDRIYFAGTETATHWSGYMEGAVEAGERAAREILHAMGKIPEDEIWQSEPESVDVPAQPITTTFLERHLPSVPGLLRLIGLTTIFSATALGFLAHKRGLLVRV
Protocol: Inhibitory potency on MAO-B enzyme from recombinant human MAO-B were carried out by a fluorometric method with a commercial kit (Promega, MAO-Glo Assay). The MAO enzyme incubation experiments were carried with a MAO-B substrate, methyl (S)-2-(6-(2-aminoethoxy) benzo[d]thiazol-2-yl)-4,5-dihydrothiazole-4-carboxylate, which was converted to luciferin methyl ester. Then the “Luciferin Detection Reagent” was added to change the methyl ester derivative to luciferin, stop the MAO-B reaction, and simultaneously produce light. The intensity of light is directly in proportion to MAO-B activity. The assay was carried in a 96-well black opaque microplate in duplicate. The reaction mixture was composed of 12.5 μL of MAO-B substrate (a final concentration of 4 μM), 25 μL of human MAO-B (1 μg of protein/well), and 12.5 μL of test compounds for each well. After 1 h of incubation at 37 °C, each well added 50 μL of “Luciferin Detection Reagent”, and incubated an additional 20 min. the luminescent signal of microplate was measured by a luminometer. The signal from reaction of MAO-B enzyme and substrate without inhibitors accounted as the positive control, whereas the signal from reaction of MAO-B enzyme and inhibitors in the absence of substrate accounted as the negative control. Compound concentrations of 1 μM were tested at first. IC50 values (the half maximal inhibitory concentration) were performed from concentration–response curves, plotted by the GraphPad Prism software. All experiments were performed in duplicate, and data are expressed as mean ± SD.

[1] = tested on: haloperidol-induced catalepsy in rats; assay: Haloperidol-induced catalepsy, bar test; type: in vivo; conditions: i.p.
Protocol: Catalepsy was measured using a thin metal bar test at 9.0 cm height. In this test, each rat was injected intraperitoneally by haloperidol (1.5 mg/kg). Before i.p. administration of vehicle (2% Tween 80–saline), PX-D-P6 and PX-E-P8 (5, 15, 50 mg/kg), at time 0 min, we tested all rats for successful induction of catalepsy. The length of time (descent latency) it persisted in hanging onto the metal bar was measured for a period of up to 300 s (maximum score). After this period, the rat was gently removed from the bar. The high bar test was performed 20 min after the injection of compound. Descent latencies have been presented as median and interquartile ranges. Differences between medians were analyzed by Kruskal-Wallis test, followed by Bonferroni's test.

[2] = Plasma and brain distribution at 1 h after i.p. administration; type: in vivo; conditions: Sprague-Dawley, rat, ip, rats, 1 h after i.p. 50 mg/kg; for concentration at 1 h: n = 6
Text: (§1) Sprague-Dawley rats (200 ± 20 g) were obtained from the Laboratory Animal Center of Wenzhou Medical University (Wenzhou, China) to study the pharmacokinetics and tissue distribution studies (TDS) of PX-D-P6 and PX-E-P8 following intraperitoneal injection (i.p.) administration. The experiment procedures and protocols were approved the Animal Care and Use Committee of Wenzhou Medical College and complied with the Guide for the Care and Use of Laboratory Animals. The corresponding ethical approval code was WMU20161025.
(§2) The chosen compounds dissolved in suspension formulation (2 % Tween 80–saline) were administered to each rat at a dose of 50 mg/kg. Blood samples (0.3 mL) were collected from the caudal vein into 1.5 mL tapered plastic centrifuge tubes (pretreated with K2EDTA as an anticoagulant) at pre-dose, 0.08, 0.16, 0.25, 0.5, 1, 2, 4, 8, 12, 24 h after i.p. administration. Separately, blood and brain samples were collected at pre-dose and 1 h for TDS. Blood samples were immediately centrifuged at 3000 g for 10 min for isolation of the plasma. Brain samples were homogenized in phosphate buffer saline. 100 μL plasma or 200 μL brain sample was precipitated with addition of 400 μL acetonitrile and vortex mixed for 1 min and centrifuged at 10,000 g for 10 min. Finally, 2μL supernatant was injected into UPLC/MS system. Calibration standards samples were prepared with blank rat plasma or brain homogenates. Plasma pharmacokinetic parameters were analyzed by DAS (Drug and Statistics) software (Version 2, Wenzhou Medical University, Wenzhou, China).

[3] = Plasma pharmacokinetics after i.p. administration; type: in vivo, Sprague-Dawley rats; conditions: 50 mg/kg, rats
Text: as §1, §2

[4] = Sprague-Dawley, rat, plasma, ip, n = 6

T1 sequence (P29274 whole entry): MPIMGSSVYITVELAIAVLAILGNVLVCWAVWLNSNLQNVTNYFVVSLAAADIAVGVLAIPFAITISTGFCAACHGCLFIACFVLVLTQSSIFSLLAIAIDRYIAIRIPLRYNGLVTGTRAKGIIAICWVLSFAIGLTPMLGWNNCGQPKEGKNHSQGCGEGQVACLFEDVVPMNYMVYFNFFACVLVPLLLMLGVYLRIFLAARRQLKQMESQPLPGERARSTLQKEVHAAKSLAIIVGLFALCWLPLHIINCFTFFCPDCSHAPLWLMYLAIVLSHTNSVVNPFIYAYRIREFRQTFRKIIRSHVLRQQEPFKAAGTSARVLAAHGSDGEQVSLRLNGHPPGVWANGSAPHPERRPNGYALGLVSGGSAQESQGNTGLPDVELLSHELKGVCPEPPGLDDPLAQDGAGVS

Ki (human A2AR) [µM]	melting point [°C]	Ki (recombinant human MAO-B) [µM]	SMILES	other results
4.99 ± 0.75	> 300	2.36 ± 0.31	COc1ccc(C(=O)Nc2cccc(-c3nc4c([nH]3)c(=O)n(C)c(=O)n4C)c2)cc1OC [PX-D-M5, N-(3-(1,3-Dimethyl-2,6-dioxo-2,3,6,7-tetrahydro-1H-purin-8-yl)phenyl)-3,4-dimethoxybenzamide]	
	> 300		COc1ccc(/C=C/C(=O)Nc2cccc(-c3nc4c([nH]3)c(=O)n(C)c(=O)n4C)c2)cc1OC [PX-E-M5]	
		> 10	CCn1c(=O)c2c(nc(/C=C/c3ccc(OC)c(OC)c3)n2C)n(CC)c1=O [Istradefylline, reference compound]	
3.59 ± 0.36	> 300	2.54 ± 0.31	COc1ccc(C(=O)Nc2cccc(-c3nc4c(c(=O)n(C)c(=O)n4C)n3C)c2)cc1OC [PX-D-M10, 3,4-Dimethoxy-N-(3-(1,3,7-trimethyl-2,6-dioxo-2,3,6,7-tetrahydro-1H-purin-8-yl)phenyl)benzamide]	
6.43 ± 0.98	> 300	1.75 ± 0.15	Cn1c(=O)c2[nH]c(-c3ccc(NC(=O)/C=C/c4cccc(Cl)c4)cc3)nc2n(C)c1=O [PX-E-P4, (E)-3-(3-Chlorophenyl)-N-(4-(1,3-dimethyl-2,6-dioxo-2,3,6,7-tetrahydro-1H-purin-8-yl)phenyl)acrylamide]	
4.27 ± 0.51	> 300	1.92 ± 0.25	COc1ccc(C(=O)Nc2ccc(-c3nc4c([nH]3)c(=O)n(C)c(=O)n4C)cc2)cc1OC [PX-D-P5, N-(4-(1,3-Dimethyl-2,6-dioxo-2,3,6,7-tetrahydro-1H-purin-8-yl)phenyl)-3,4-dimethoxybenzamide]	
0.27 ± 0.08	> 300	1.51 ± 0.19	Cn1c(=O)c2c(nc(-c3ccc(NC(=O)c4cccc(Cl)c4)cc3)n2C)n(C)c1=O [PX-D-P9, 3-Chloro-N-(4-(1,3,7-trimethyl-2,6-dioxo-2,3,6,7-tetrahydro-1H-purin-8-yl)phenyl)benzamide]	
0.85 ± 0.11	> 300	0.63 ± 0.11	Cn1c(=O)c2c(nc(-c3ccc(NC(=O)/C=C/c4cccc(Cl)c4)cc3)n2C)n(C)c1=O [PX-E-P8, (E)-3-(3-Chlorophenyl)-N-(4-(1,3,7-trimethyl-2,6-dioxo-2,3,6,7-tetrahydro-1H-purin-8-yl)phenyl)acrylamide]	Anti-catalepsy ability ([1]; 50 mg/kg (high dose)): significant anti-catalepsy ability; Effect on haloperidol-induced catalepsy ([1]; different doses (5, 15 and 50 mg/kg), haloperidol 1.5 mg/kg): significant reduction in catalepsy; Anti-catalepsy effect ([1]; low dose): slight effects; Kp at 1 h ([2]; brain and plasma, read-out: B/P Ratio (brain/plasma ratio)): 0.97; concentration at 1 h ([2]; brain, read-out: Brain concentration): 887 ± 113 ng/g; concentration at 1 h ([2]; plasma, read-out: Plasma concentration): 915 ± 231 ng/mL; Tmax ([3]; Sprague-Dawley, rat, plasma, ip, n = 6, read-out: Tmax): 28.8 min; AUC(0-t) [3, 4]: 15600 ± 1540 ng·h/mL; Cmax [3, 4]: 1640 ± 436 ng/mL; half-life [3, 4]: 196 ± 23.4 min; CL ([3]; n = 6): 171.3 ± 36.5 mL/min/kg; Tmax ([3]; n = 6): 27 ± 12.6 min
2.44 ± 0.21	> 300	0.76 ± 0.11	Cn1c(=O)c2c(nc(-c3cccc(NC(=O)c4cccc(Cl)c4)c3)n2C)n(C)c1=O [PX-D-M9, 3-Chloro-N-(3-(1,3,7-trimethyl-2,6-dioxo-2,3,6,7-tetrahydro-1H-purin-8-yl)phenyl)benzamide]	
1.52 ± 0.16	> 300	0.25 ± 0.05	Cn1c(=O)c2[nH]c(-c3ccc(NC(=O)c4cccc(Cl)c4)cc3)nc2n(C)c1=O [PX-D-P4, 3-Chloro-N-(4-(1,3-dimethyl-2,6-dioxo-2,3,6,7-tetrahydro-1H-purin-8-yl)phenyl)benzamide]	
1.34 ± 0.16	> 300	2.97 ± 0.37	COc1ccc(C(=O)Nc2ccc(-c3nc4c(c(=O)n(C)c(=O)n4C)n3C)cc2)cc1OC [PX-D-P10, 3,4-Dimethoxy-N-(4-(1,3,7-trimethyl-2,6-dioxo-2,3,6,7-tetrahydro-1H-purin-8-yl)phenyl)benzamide]	
	> 300		COc1ccc(/C=C/C(=O)Nc2cccc(-c3nc4c(c(=O)n(C)c(=O)n4C)n3C)c2)cc1OC [PX-E-M10]	
3.61 ± 0.41	> 300	1.27 ± 0.18	Cn1c(=O)c2[nH]c(-c3cccc(NC(=O)c4cccc(Cl)c4)c3)nc2n(C)c1=O [PX-D-M 4, 3-Chloro-N-(3-(1,3-dimethyl-2,6-dioxo-2,3,6,7-tetrahydro-1H-purin-8-yl)phenyl)benzamide]	
